Data from ChEMBL document CHEMBL3526157, “Unique metabolic pathway of [(14)C]lenvatinib after oral administration to male cynomolgus monkey” (Drug Metab Dispos, 2012).

Assays:
Cynomolgus monkey [1] = assay: Drug retention time in cynomolgus monkey treated with 30 mg/kg, po of [14C]lenvatinib administered on day 1, 2 and 4 by radio-LC/MS analysis; format: ADME, organism-based, Macaca fascicularis; design: dose 30 mg/kg, route oral; conditions: in vivo
Cynomolgus monkey [2] = assay: Drug metabolism in cynomolgus monkey treated with 30 mg/kg, po of [14C]lenvatinib administered on day 1, 2 and 4 by radio-LC/MS analysis; format: ADME, organism-based, Macaca fascicularis; design: dose 30 mg/kg, route oral; conditions: in vivo

| Retention_time (Cynomolgus monkey [1]) [min] | Drug metabolism (Cynomolgus monkey [2]) | SMILES |
| --- | --- | --- |
| 13.5 | metabolite_detected | COc1cc2nccc(N[C@@H](CSSC[C@H](Nc3ccnc4cc(OC)c(C(N)=O)cc34)C(=O)O)C(=O)O)c2cc1C(N)=O |
| 14.5 | metabolite_detected | COc1cc2nccc(N[C@@H](CS)C(=O)O)c2cc1C(N)=O |
| 17.1 | metabolite_detected | COc1cc2nccc(N[C@@H](CSc3ccnc4cc(OC)c(C(N)=O)cc34)C(=O)O)c2cc1C(N)=O |
| 12.2 | metabolite_detected | COc1cc2nccc(SCC(=O)O)c2cc1C(N)=O |
